Results from ChEMBL document CHEMBL3044799, “Biological activity of the succinate dehydrogenase inhibitor fluopyram against Botrytis cinerea and fungal baseline sensitivity” (Pest Manag Sci, 2012).
Values after ≈ are worked out from the molar mass of the structure shown.

Key:
Botrytis cinerea [1] = test: Curative antifungal activity against Botryotinia fuckeliana inoculated in strawberry fruit assessed as disease severity measuring lesion diameter at 300 ug AI/ml applied 24 hr post-inoculation; type: functional
Botrytis cinerea [2] = test: Curative antifungal activity against Botryotinia fuckeliana inoculated in strawberry fruit assessed as disease control efficacy at 300 ug AI/ml applied 48 hr post-inoculation relative to control; type: functional
Botrytis cinerea [3] = test: Curative antifungal activity against Botryotinia fuckeliana inoculated in strawberry fruit assessed as disease severity measuring lesion diameter at 300 ug AI/ml applied 48 hr post-inoculation; type: functional
Botrytis cinerea [4] = test: Antifungal activity against Botryotinia fuckeliana inoculated in strawberry fruit; type: functional, organism-based
Botrytis cinerea [5] = test: Curative antifungal activity against Botryotinia fuckeliana inoculated in strawberry fruit assessed as disease control efficacy at 300 ug AI/ml applied 96 hr post-inoculation relative to control; type: functional
Botrytis cinerea [6] = test: Protective antifungal activity against Botryotinia fuckeliana inoculated in fungicide-applied strawberry fruit assessed as disease severity measuring lesion diameter at 300 ug AI/ml applied 96 hr prior-inoculation; type: functional
Botrytis cinerea [7] = test: Curative antifungal activity against Botryotinia fuckeliana inoculated in strawberry fruit assessed as disease severity measuring lesion diameter at 300 ug AI/ml applied 96 hr post-inoculation; type: functional
Botrytis cinerea [8] = test: Curative antifungal activity against Botryotinia fuckeliana inoculated in strawberry fruit assessed as disease control efficacy at 300 ug AI/ml applied 24 hr post-inoculation relative to control; type: functional
Botrytis cinerea [9] = test: Protective antifungal activity against Botryotinia fuckeliana inoculated in fungicide-applied strawberry fruit assessed as disease control efficacy at 300 ug AI/ml applied 48 hr prior inoculation relative to control; type: functional
Botrytis cinerea [10] = test: Protective antifungal activity against Botryotinia fuckeliana inoculated in fungicide-applied strawberry fruit assessed as disease severity measuring lesion diameter at 300 ug AI/ml applied 48 hr prior inoculation; type: functional
Botrytis cinerea [11] = test: Protective antifungal activity against Botryotinia fuckeliana inoculated in fungicide-applied strawberry fruit assessed as disease control efficacy at 300 ug AI/ml applied 96 hr prior-inoculation relative to control; type: functional
Botrytis cinerea [12] = test: Protective antifungal activity against Botryotinia fuckeliana inoculated in fungicide-applied strawberry fruit assessed as disease control efficacy at 300 ug AI/ml applied 24 hr prior inoculation relative to control; type: functional
Botrytis cinerea [13] = test: Protective antifungal activity against Botryotinia fuckeliana inoculated in fungicide-applied strawberry fruit assessed as disease severity measuring lesion diameter at 300 ug AI/ml applied 24 hr prior inoculation; type: functional
Botrytis cinerea [14] = test: Curative antifungal activity against Botryotinia fuckeliana inoculated in strawberry fruit assessed as disease control efficacy at 100 ug AI/ml applied 24 hr post-inoculation relative to control; type: functional
Botrytis cinerea [15] = test: Curative antifungal activity against Botryotinia fuckeliana inoculated in strawberry fruit assessed as disease severity measuring lesion diameter at 100 ug AI/ml applied 24 hr post-inoculation; type: functional
Botrytis cinerea [16] = test: Curative antifungal activity against Botryotinia fuckeliana inoculated in strawberry fruit assessed as disease control efficacy at 100 ug AI/ml applied 48 hr post-inoculation relative to control; type: functional
Botrytis cinerea [17] = test: Curative antifungal activity against Botryotinia fuckeliana inoculated in strawberry fruit assessed as disease severity measuring lesion diameter at 100 ug AI/ml applied 48 hr post-inoculation; type: functional
Botrytis cinerea [18] = test: Curative antifungal activity against Botryotinia fuckeliana inoculated in strawberry fruit assessed as disease control efficacy at 100 ug AI/ml applied 96 hr post-inoculation relative to control; type: functional
Botrytis cinerea [19] = test: Protective antifungal activity against Botryotinia fuckeliana inoculated in fungicide-applied strawberry fruit assessed as disease severity measuring lesion diameter at 100 ug AI/ml applied 96 hr prior-inoculation; type: functional
Botrytis cinerea [20] = test: Curative antifungal activity against Botryotinia fuckeliana inoculated in strawberry fruit assessed as disease severity measuring lesion diameter at 100 ug AI/ml applied 96 hr post-inoculation; type: functional
Botrytis cinerea [21] = test: Protective antifungal activity against Botryotinia fuckeliana inoculated in fungicide-applied strawberry fruit assessed as disease control efficacy at 100 ug AI/ml applied 48 hr prior inoculation relative to control; type: functional
Botrytis cinerea [22] = test: Protective antifungal activity against Botryotinia fuckeliana inoculated in fungicide-applied strawberry fruit assessed as disease severity measuring lesion diameter at 100 ug AI/ml applied 48 hr prior inoculation; type: functional
Botrytis cinerea [23] = test: Protective antifungal activity against Botryotinia fuckeliana inoculated in fungicide-applied strawberry fruit assessed as disease control efficacy at 100 ug AI/ml applied 96 hr prior-inoculation relative to control; type: functional
Botrytis cinerea [24] = test: Protective antifungal activity against Botryotinia fuckeliana inoculated in fungicide-applied strawberry fruit assessed as disease control efficacy at 100 ug AI/ml applied 24 hr prior inoculation relative to control; type: functional
Botrytis cinerea [25] = test: Protective antifungal activity against Botryotinia fuckeliana inoculated in fungicide-applied strawberry fruit assessed as disease severity measuring lesion diameter at 100 ug AI/ml applied 24 hr prior inoculation; type: functional

Question: `O=C(Nc1ccccc1-c1ccc(Cl)cc1)c1cccnc1Cl` [BOSCALID] was tested. Which Activity (Botrytis cinerea [1]) did it give?
Answer: 4.7 mm

Question: What about the Efficacy (Botrytis cinerea [2]) of the same molecule?
Answer: 94.1%

Question: What about the Activity (Botrytis cinerea [3]) of the same molecule?
Answer: 1.1 mm

Question: And the EC50 (Botrytis cinerea [4])?
Answer: 0.09 µg/mL (≈ 0.262 µM)

Question: What about the Efficacy (Botrytis cinerea [5]) of the same molecule?
Answer: 29.8%

Question: What about the Activity (Botrytis cinerea [6]) of the same molecule?
Answer: 3.4 mm

Question: What about the Activity (Botrytis cinerea [7]) of the same molecule?
Answer: 13.2 mm

Question: And the Efficacy (Botrytis cinerea [8])?
Answer: 74.7%

Question: What about the Efficacy (Botrytis cinerea [9]) of the same molecule?
Answer: 84%

Question: What about the Activity (Botrytis cinerea [10]) of the same molecule?
Answer: 3 mm

Question: What about the Efficacy (Botrytis cinerea [11]) of the same molecule?
Answer: 81.8%

Question: And the Efficacy (Botrytis cinerea [12])?
Answer: 91.7%

Question: And the Activity (Botrytis cinerea [13])?
Answer: 1.5 mm

Question: Which EC50 (Botrytis cinerea [4]) does the source give for `COC(=O)Nc1nc2ccccc2[nH]1` [CARBENDAZIM] here?
Answer: 0.05 µg/mL (≈ 0.262 µM)

Question: How did the EC50 (Botrytis cinerea [4]) turn out when `Cc1cc(C2CC2)nc(Nc2ccccc2)n1` [CYPRODINIL] was run?
Answer: 0.007 µg/mL (≈ 0.0311 µM)

Question: How did the Efficacy (Botrytis cinerea [14]) turn out when `CC1(C(=O)Nc2ccc(O)c(Cl)c2Cl)CCCCC1` [FENHEXAMID] was run?
Answer: 61.4%

Question: What about the Activity (Botrytis cinerea [15]) of the same molecule?
Answer: 7.2 mm

Question: And the Efficacy (Botrytis cinerea [16])?
Answer: 89.2%

Question: What about the Activity (Botrytis cinerea [17]) of the same molecule?
Answer: 2 mm

Question: And the EC50 (Botrytis cinerea [4])?
Answer: 0.04 µg/mL (≈ 0.132 µM)

Question: What about the Efficacy (Botrytis cinerea [18]) of the same molecule?
Answer: 23.2%

Question: And the Activity (Botrytis cinerea [19])?
Answer: 1 mm

Question: What about the Activity (Botrytis cinerea [20]) of the same molecule?
Answer: 14.5 mm

Question: What about the Efficacy (Botrytis cinerea [21]) of the same molecule?
Answer: 97.6%

Question: What about the Activity (Botrytis cinerea [22]) of the same molecule?
Answer: 0.4 mm

Question: What about the Efficacy (Botrytis cinerea [23]) of the same molecule?
Answer: 94.4%

Question: And the Efficacy (Botrytis cinerea [24])?
Answer: 99.2%

Question: And the Activity (Botrytis cinerea [25])?
Answer: 0.1 mm

Question: Which EC50 (Botrytis cinerea [4]) does the source give for `N#Cc1c[nH]cc1-c1cccc2c1OC(F)(F)O2` [FLUDIOXONIL] here?
Answer: 0.003 µg/mL (≈ 0.0121 µM)

Question: How did the EC50 (Botrytis cinerea [4]) turn out when `CC(C)NC(=O)N1CC(=O)N(c2cc(Cl)cc(Cl)c2)C1=O` [IPRODIONE] was run?
Answer: 0.25 µg/mL (≈ 0.757 µM)

Question: How did the EC50 (Botrytis cinerea [4]) turn out when `COC(=O)N(OC)c1ccccc1COc1ccn(-c2ccc(Cl)cc2)n1` [PYRACLOSTROBIN] was run?
Answer: 0.01 µg/mL (≈ 0.0258 µM)
